Assay results: US9545412B2, “Composition and methods used during anti-HIV treatment” (UNIVERSITE D'AIX-MARSEILLE, priority 2008, dated 2017)

Key:
prelamin A [1] = assay: Immunohistochemistry: prelamin A level in healthy cells; assay type: cell-based, human; conditions: Pravastatin 100 μM for 12 hours, Zoledronate 20 μM for 6 hours; in association or alone
Method: (§1) A cell culture is trypsinized, and the cells are counted on a Neubauer cytometer.
(§2) Labtech culture wells (Nunc, ref. 177399) are seeded in an amount of 5×10^4 cells per well.
(§3) The complete culture medium is supplemented by the treatment(s) (statin, NBP, both), and the cells are cultivated for the ad hoc time.
(§4) The cells are fixed in a paraformaldehyde 4% solution (in PBS) for 10 minutes at room temperature.
(§5) […], the cells are incubated for 5 minutes at room temperature in a humidity chamber in 50 μl of permeabilization solution:
(§6) The primary antibody is diluted to 1/100 in 50 μl of incubation solution and placed in contact with the cells for 1 hour at room temperature in a humidity chamber.
(§7) The primary antibodies used are of two types: • Mouse anti-lamin A/C (N-terminal side), clone 4A7, donated by G. Morris (Oswestry, UK) • Goat anti-prelamin A (C-terminal end 15 aa), product SC6214, Santa Cruz Biotchnology, Inc.
(§8) The incubation with the secondary antibody takes place for 1 hour in […] of incubation solution at room temperature in a humidity chamber. […]
(§9) The cells are immersed in one drop of VectaShield (Vector), covered with an object-cover slide and observed under a fluorescence microscope (Leica DMR, Leica Microsystems), equipped with a coolSNAP camera (Princeton). […]

Zmpste24^−/− mice = assay: Progeroid phenotype and lifespan of Zmpste24^−/− mice (Example 7); assay type: in vivo, mouse; conditions: daily treatment with one drug alone
Method: All of the experiments on mice are governed by the rules set down by the Animal Experiment Committee of the University of Oviedo (Spain). The pravastatin (100 mg/kg/day) and the zoledronate (100 mg/kg/day) diluted in PBS are administered to the mice every day.

[2] = test system: cells of progeria patients; assay: Quantitative analysis of nuclear morphology of cells of progeria patients; assay type: cell-based, human; conditions: added to pravastatin+zoledronate, abnormal nuclei measured 48 h after beginning of treatment
Description: The dermal fibroblasts of a control subject (GM00038) and of patients afflicted with progeria and carriers of the mutation G608G (AG11498 and AG01972) were obtained from the Coriell Cell Repository. The HeLa cells come from the American Type Culture Collection. The cells are cultivated in DMEM (Gibco) supplemented with 10% FBS (Gibco) and 1% antibiotic-antimycotic (Gibco). The fibroblasts come from tails of 12-day-old mice (Varela and al., 2005). The concentration and the duration of treatment with the statin and the aminobiphosphonate are indicated in the legende of the figures. […] The percentage of abnormal nuclei is measured 48 h after the beginning of the treatment. […]
The dilution of the primary antibodies is 1/100 for the goat polyclonal anti-prelamin A antibody (Sc-6214, Santa Cruz Biotechnologies), 1/40 for the anti-lamin A/C antibody (4A7 provided by G. Morris), 1/200 for the Rabbit anti-calreticulin antibody (Stressgen) and 1/100 for the B1 anti-lamin antibody (Abcam). […] Digital images are recorded with a Leica DMR microscope equipped with a CoolSnap camera or with a Leica TCS SP5 confocal microscope. […] More than 100 nuclei were analysed in the control fibroblasts for each of the treatments. The number of nuclei of cells of patients afflicted with progeria analysed is 250 (passage 8), 198 (passage 13) and 150 (passage 20). […]

Zmpste24^−/− mouse cells = assay: Nuclear morphology of Zmpste24^−/− mouse cells in culture; assay type: cell-based; conditions: pravastatin (1 μM) and zoledronate (1 μM), alone or in combination
Description: (§10) The dermal fibroblasts of a control subject (GM00038) and of patients afflicted with progeria and carriers of the mutation G608G (AG11498 and AG01972) were obtained from the Coriell Cell Repository. The HeLa cells come from the American Type Culture Collection. The cells are cultivated in DMEM (Gibco) supplemented with 10% FBS (Gibco) and 1% antibiotic-antimycotic (Gibco). The fibroblasts come from tails of 12-day-old mice (Varela and al., 2005). The concentration and the duration of treatment with the statin and the aminobiphosphonate are indicated in the legende of the figures. During the combined statin+aminobiphosphonate treatment in the presence of farnesol and/or of geranylgeraniol, […] were added to the culture medium with increasing concentrations of farnesol and/or of geranylgeraniol. The percentage of abnormal nuclei is measured 48 h after the beginning of the treatment.
(§11) Quantification of the effect of pravastatin (1 μM) and zoledronate (1 μM), alone or in combination, on the nuclear morphology of Zmpste24^−/− mouse cells (a) and control mouse cells (b) in culture, in the presence of farnesol, geranylgeraniol or both molecules.

control fibroblasts = assay: Nuclear morphology of control mouse cells in culture; assay type: cell-based
Description: as §10, §11

healthy cells = assay: Immunohistochemistry: toxicity / deformed nuclei on healthy cells; assay type: cell-based, human; conditions: Pravastatin 100 μM for 12 hours, Zoledronate 20 μM for 6 hours; in association or alone
Method: as §1, §2, §3, §4, §5, §6, §7, §8, §9

progerin = assay: Mass spectrometry (MALDI-ToF) of nuclear envelope proteins, cells of progeria patients; assay type: cell-based, human; conditions: FTI 2.5 μM
Description: (§12) The fibroblasts of control and Zmpste24^−/− mice as well as the cells lymphoblastoids of progeria patients have been homogenised, the nuclei isolated via ultracentrifugation and the nuclear proteins obtained as described in Blobel and Potter, V. R. Nuclei from rat liver: isolation method that combines purity with high yield, Science 154, 1662-1665, 1966. The proteins of the nuclear lamina were separated via SDS-PAGE electrophoresis, and the strips containing the lamin A, the prelamin A and the progerin were excised. The fragments of the gel were washed twice with […] of a ammonium bicarbonate/acetonitrile mixture (70/30, 25 mM), dried (15 min, 90° C.) and digested (1 h, 60° C.) with trypsin (12 ng/ml, Promega) in the ammonium bicarbonate 25 mM. […] The data collected using 200 laser firings produce spectra analysed with the Data Explorer programme (version 4.0.0.0, Applied Biosystems).
FIG. 11 legend: mass spectrometry analysis of the proteins extracted from the nuclear envelop of the untreated cells (a), of the cells of the progeria patients treated with FTI (2.5 μM, b) or treated with the mixture of pravastatin+zoledronate (1 μM apiece, c). […] Each peak corresponds to the tryptic peptide of the progerin and is marked with the measured monoisotopic mass in experiment and with the theoretical mass (between parentheses). […]

prelamin A [3] = assay: Mass spectrometry (MALDI-ToF) of nuclear envelope proteins, Zmpste24^−/− mouse fibroblasts; assay type: cell-based; conditions: FTI-treated Zmpste24^−/− mouse cells
Description: as §12
FIG. 12 legend: a mass spectrometry analysis of the proteins extracted from the nuclear envelop of the untreated fibroblasts (a) or treated with a mixture of pravastatin+zoledronate (1 μM apiece, b) stemming from Zmpste24^−/− mice. […] Each peak corresponds to a tryptic peptide of the progerin and is marked with a monoisotopic mass measured the experiment and with the theoritical mass (in parentheses). […]

SMILES	prelamin A level produced in healthy cells (prelamin A [1]) [%]	effect on the nuclear morphology improvement given by the pravastatin+zoledronate treatment [2]	effect on the nuclear morphology improvement given by the pravastatin+zoledronate treatment (Zmpste24^−/− mouse cells)	effect on nuclear morphology of control fibroblasts (control fibroblasts)	other results
O=P(O)(O)C(O)(Cn1ccnc1)P(=O)(O)O [zoledronate, (1-hydroxy-2-imidazol-1-yl-1-phosphono-ethyl) phosphonic acid]	15	–	–	–	lifespan of Zmpste24^−/− mice, drug in isolation (Zmpste24^−/− mice): neither of the drugs in isolation, pravastatin or zoledronate, increases the lifespan
CC(C)=CCC/C(C)=C/CC/C(C)=C/CC/C(C)=C/CO [geranylgeraniol]	–	blocks the effect of the treatment	nullify the effect of the pravastatin+zoledronate treatment	Neither farnesol nor geranylgeraniol have any effect	–
CC[C@H](C)C(=O)O[C@H]1C[C@H](O)C=C2C=C[C@H](C)[C@H](CC[C@@H](O)C[C@@H](O)CC(=O)O)[C@H]21 [pravastatin]	25	–	–	–	rate of deformed nuclei (sign of toxicity on healthy cells) (healthy cells): around 12%
COC(=O)[C@H](CCSC)NC(=O)c1ccc(NC[C@@H](N)CS)cc1-c1ccccc1 [FTI-277]	–	–	–	–	farnesylated and carboxymethylated progerin peak (progerin): considerable reduced; geranylgeranylated progerin peptides (progerin): appears geranylgeranylated and phosphoryl; geranyl-geranylated prelamin A peptide (prelamin A [3]): detected a peptide which mass is compatible with a geranyl-geranylated fragment of the prelamine A; quantity of farnesylated prelamin A (prelamin A [3]): reduction in the quantity of farnesyled prelamine A
CC(C)=CCCC(C)=CCCC(C)=CCO [farnesol]	–	nullifies the effect of the pravastatin+zoledronate treatment	nullify the effect of the pravastatin+zoledronate treatment	Neither farnesol nor geranylgeraniol have any effect	–
